Laboratory results: US4083994A, “Choleretics” (Hisamitsu Pharmaceutical Co., Inc., priority 1975, dated 1978)

Key:
bile secretion [1] = assay: Bile secretion test in rats; type: in vivo, male Wistar rats; details: oral; for Bile volume secreted after administration: rat, volume in 1 h before administration = 100%; for Volume of bile secreted relative to one hour before administration: rats
Method: Male Wistar rats weighing 200-210 g were fasted overnight and laparotomized under urethane anesthesia(Subcutaneous injection at a dose of 1.5 g/kg). A polyethylene tube was inserted into the common bile duct. The bile was collected for one hour from 30 minutes after the operation. Subsequently, the animals were given orally the test drugs, each 50 mg of which was suspended in 1 ml of 5% gum arabic aqueous solution. The bile was collected for 5 hours after the drug administration. The volume of the bile secreted at hourly intervals after the drug administration was expressed in %, defining the volume secreted for one hour before the drug administration as 100%, as shown in Table 1.
About 500 mg of p-menth-1-ene-8,9-diol were weighed accurately, and suspended in 10 ml of 5% gum arabic aqueous solution. […] Male rats of Wistar strain weighing 200 g were fasted overnight, anesthetized by subcutanous injection of 0.3 g of urethane and laparotomized. A polyethylene tube was inserted into the common bile duct. The bile was collected for one hour from 30 minutes after the operation. […]
About 500 mg of 9-acetoxy-p-menth-1-en-8-ol was weighed accurately and suspended in 10ml of 5% gum arabic aqueous solution. […] Male rats of Wistar strain weighing about 210 g were fasted overnight and anesthetized by subcutaneous injection of 0.32 g of urethane and then laparotomized. A polyethylene tube was inserted into the common bile duct, and the bile secreted through the duct was collected for one hour from 30 minutes after the operation. Subsequently, the choleretic of the present invention was administered orally in a volume of 1.05 ml (250 mg/kg).

bile secretion [2] = assay: Bile secretion test in dogs; type: in vivo, male mongrel dogs; details: dog, into duodenum, volume in 1 h before administration = 100%
Method: Male mongrel dogs weighing approximately 8 kg were anesthetized with intravenous injection of […] of pentobarbital and further with subcutaneous injection of urethane at a dose of 1.0 g/kg and laparotomized. One canula was inserted into the common bile duct and directed to the liver for collection of the bile, and the other canula was inserted into the duodenum for the drug administration. The cholecystic duct was ligated and the gallbladder bile was aspirated with an injection syringe. The operation was finished by suture of the peritoneum. The bile was collected for one hour from 30 minutes after the operation. The animals were given the test drugs, each 50 mg of which was suspended in 1 ml of 5% gum arabic aqueous solution, through the canula for the drug administration. The bile was collected at hourly intervals for 6 hours after the drug administration. Defining the volume of the bile secreted for one hour before the drug administration as 100%, the volume secreted at hourly intervals after the drug administration was expressed in %, as shown in Table 2.
The mean volume secreted for one hour before the drug administration was 1798 μl.
This suspension was used as a choleretic of the present invention. A male mongrel dog weighing 8.8 kg was fasted overnight and anesthetized by subcutaneous injection of 1.0 mg/kg of urethane and laparotomized. One canula was inserted into the common bile duct and directed to the liver for collection of the bile, and the other canula was also inserted into the duodenum for the drug administration. Subsequently, the cholecystic duct was ligated and the gallbladder bile was aspirated with an injection syringe. The operation was finished after suturing the peritoneum. The bile was collected for one hour from 30 minutes after the operation, and subsequently, 44 ml of the test drug prepared above (250 mg/kg) was given through the canula for the drug administration. The volume of the bile secreted for the first, second and third one hour after the drug administration were 2.2, 2.1 and 1.9 times larger, respectively, than that secreted for one hour before the drug administration.
About 2.5 g of 9-propionyloxy-p-menth-1-en-8-ol was weighed accurately and suspended in 50 ml of 5% gum arabic aqueous solution. This suspension was used as a choleretic of the present invention. A male mongrel dog weighing 7.6 kg was fasted overnight and anesthetized by subcutaneous injection of 1.0 mg/kg of urethane and then laparotomized. One canula was inserted into the common bile duct and directed to the liver for collection of the bile, and the other canula into the duodenum for the drug administration. Subsequently, the cholecystic duct was ligated and the gallbladder bile was aspirated with an injection syringe. The operation was finished by suturing the peritoneum. The bile was collected for one hour from 30 minutes after the operation, and 50 ml (330 mg/kg) of the test drug prepared above was administered through the canula for the drug administration. The volume of the bile secreted for the first, second and third one hour after the drug administration was 3.2, 5.0 and 4.7 times larger, respectively, than that secreted for one hour before the drug administration.

[3] = Acute toxicity test in mice; details: mouse, in vivo, oral, parentheses: 95% confidence limit
Method: (§1) The test drugs were suspended in 5% gum arabic aqueous solution to make 50 mg/ml, and given orally male mice of ddY strain weighing 18-22 g and male rats of Wistar strain weighing 95-120 g. The LD50 values were calculated from the mortality of the animals that ensued during the 72 hours following the drug administration

[4] = Acute toxicity test in rats; design: species or system male rats of Wistar strain; details: rat, in vivo, oral, parentheses: 95% confidence limit
Method: as §1

[5] = test system: sleeping time induced by hexobarbital; assay: Effects on the sleeping time induced by hexobarbital (metabolism function of the liver); type: in vivo, male rats of Wistar strain; details: rats, 250 mg/kg oral once daily for a week; hexobarbital sodium 100 mg/kg i.p.; control 17.1 ± 0.9
Method: About 500 mg of the test drugs were weighed accurately and suspended in 2 ml of 5% gum arabic aqueous solution. Ten male rats of Wistar strain were used per group and given orally the test drugs prepared above in a volume of 0.1 ml/100 g body weight (equivalent to 250 mg/kg), once daily (at 8.30-9.00 a.m.), for a week. The animals were fasted overnight after the last administration of the test drugs. Subsequently, 10% hexobarbital sodium aqueous solution was injected intraperitoneally in a volume of 0.1 ml (equivalent to 100 mg/kg) and the sleeping time was measured. The animals were regarded as sleeping when the loss of righting reflex persist for more than 30 seconds.

## CC(=O)OCC(C)(O)C1CC=C(C)CC1 (stereo not shown) [9-Acetoxy-p-menth-1-en-8-ol, 9-acetoxy-p-menth-1-en-8-ol]
Bile secretion [1]; 100 mg/kg, 0-1 hr
  Bile volume secreted after administration: 125%
Bile secretion [1]; 100 mg/kg, 1-2 hr
  Bile volume secreted after administration: 109%
Bile secretion [1]; 100 mg/kg, 2-3 hr
  Bile volume secreted after administration: 96%
Bile secretion [1]; 100 mg/kg, 3-4 hr
  Bile volume secreted after administration: 82%
Bile secretion [1]; 100 mg/kg, 4-5 hr
  Bile volume secreted after administration: 75%
Bile secretion [1]; 310 mg/kg, 0-1 hr
  Bile volume secreted after administration: 196%
Bile secretion [1]; 310 mg/kg, 1-2 hr
  Bile volume secreted after administration: 172%
Bile secretion [1]; 310 mg/kg, 2-3 hr
  Bile volume secreted after administration: 145%
Bile secretion [1]; 310 mg/kg, 3-4 hr
  Bile volume secreted after administration: 124%
Bile secretion [1]; 310 mg/kg, 4-5 hr
  Bile volume secreted after administration: 114%
Bile secretion [1]; 930 mg/kg, 0-1 hr
  Bile volume secreted after administration: 218%
Bile secretion [1]; 930 mg/kg, 1-2 hr
  Bile volume secreted after administration: 203%
Bile secretion [1]; 930 mg/kg, 2-3 hr
  Bile volume secreted after administration: 172%
Bile secretion [1]; 930 mg/kg, 3-4 hr
  Bile volume secreted after administration: 154%
Bile secretion [1]; 930 mg/kg, 4-5 hr
  Bile volume secreted after administration: 130%
Bile secretion [1]; 250 mg/kg, first hour
  Volume of bile secreted relative to one hour before administration: 1.9 times
Bile secretion [1]; 250 mg/kg, second hour
  Volume of bile secreted relative to one hour before administration: 1.7 times
Bile secretion [1]; 250 mg/kg, third hour
  Volume of bile secreted relative to one hour before administration: 1.4 times
Bile secretion [2]; 310 mg/kg, 0-1 hr
  Bile volume secreted after administration: 395%
Bile secretion [2]; 310 mg/kg, 1-2 hr
  Bile volume secreted after administration: 457%
Bile secretion [2]; 310 mg/kg, 2-3 hr
  Bile volume secreted after administration: 534%
Bile secretion [2]; 310 mg/kg, 3-4 hr
  Bile volume secreted after administration: 464%
Bile secretion [2]; 310 mg/kg, 4-5 hr
  Bile volume secreted after administration: 277%
Bile secretion [2]; 310 mg/kg, 5-6 hr
  Bile volume secreted after administration: 157%
[3]
  LD50 at 72 h: 1000 to 2000 mg/kg
[4]
  LD50 at 72 h: 8300 mg/kg
[5]
  Sleeping time: 18.1 ± 1.5 min

## CC1=CCC(C(C)(O)CO)CC1 (stereo not shown) [p-Menth-1-ene-8,9-diol, p-menth-1-ene-8,9-diol]
Bile secretion [1]; 80 mg/kg, 0-1 hr
  Bile volume secreted after administration: 155%
Bile secretion [1]; 80 mg/kg, 1-2 hr
  Bile volume secreted after administration: 118%
Bile secretion [1]; 80 mg/kg, 2-3 hr
  Bile volume secreted after administration: 101%
Bile secretion [1]; 80 mg/kg, 3-4 hr
  Bile volume secreted after administration: 93%
Bile secretion [1]; 80 mg/kg, 4-5 hr
  Bile volume secreted after administration: 85%
Bile secretion [1]; 250 mg/kg, 0-1 hr
  Bile volume secreted after administration: 213%
Bile secretion [1]; 250 mg/kg, 1-2 hr
  Bile volume secreted after administration: 170%
Bile secretion [1]; 250 mg/kg, 2-3 hr
  Bile volume secreted after administration: 122%
Bile secretion [1]; 250 mg/kg, 3-4 hr
  Bile volume secreted after administration: 99%
Bile secretion [1]; 250 mg/kg, 4-5 hr
  Bile volume secreted after administration: 89%
Bile secretion [1]; 750 mg/kg, 0-1 hr
  Bile volume secreted after administration: 218%
Bile secretion [1]; 750 mg/kg, 1-2 hr
  Bile volume secreted after administration: 199%
Bile secretion [1]; 750 mg/kg, 2-3 hr
  Bile volume secreted after administration: 175%
Bile secretion [1]; 750 mg/kg, 3-4 hr
  Bile volume secreted after administration: 153%
Bile secretion [1]; 750 mg/kg, 4-5 hr
  Bile volume secreted after administration: 139%
Bile secretion [1]; 250 mg/kg, first hour
  Volume of bile secreted relative to one hour before administration: 2.1 times
Bile secretion [1]; 250 mg/kg, second hour
  Volume of bile secreted relative to one hour before administration: 1.7 times
Bile secretion [1]; 250 mg/kg, third hour
  Volume of bile secreted relative to one hour before administration: 1.2 times
Bile secretion [2]; 250 mg/kg, 0-1 hr
  Bile volume secreted after administration: 176%
Bile secretion [2]; 250 mg/kg, 1-2 hr
  Bile volume secreted after administration: 168%
Bile secretion [2]; 250 mg/kg, 2-3 hr
  Bile volume secreted after administration: 122%
Bile secretion [2]; 250 mg/kg, 3-4 hr
  Bile volume secreted after administration: 65%
Bile secretion [2]; 250 mg/kg, 4-5 hr
  Bile volume secreted after administration: 41%
[3]
  LD50 at 72 h: 1800 mg/kg
[5]
  Sleeping time: 17.8 ± 0.3 min
